Laboratory results: PubChem BioAssay (NCI)
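Cultured in 96-well plates, cells were exposed to test compound for 48 hours across five concentrations. Abbreviation: GI50, concentration required for 50% inhibition of growth. TGI is the concentration that stops growth completely.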

Tests used:
Test in all cases: inhibition of tumour cell growth, NCI panel, 48 h
SK-OV-3 ovarian = tested on: SK-OV-3 ovarian
HT29 colon = tested on: HT29 colon
A549 NSCLC = tested on: A549 NSCLC
786-0 renal = tested on: 786-0 renal
HCT-116 colon = tested on: HCT-116 colon
HOP-92 NSCLC = tested on: HOP-92 NSCLC
HOP-62 NSCLC = tested on: HOP-62 NSCLC
BT-549 breast = tested on: BT-549 breast
DU-145 prostate = tested on: DU-145 prostate
HCC-2998 colon = tested on: HCC-2998 colon

| Structure (SMILES) | TGI (SK-OV-3 ovarian) | TGI (HT29 colon) | TGI (A549 NSCLC) | TGI (786-0 renal) | TGI (HCT-116 colon) | TGI (HOP-92 NSCLC) | TGI (HOP-62 NSCLC) | TGI (BT-549 breast) | TGI (DU-145 prostate) | TGI (HCC-2998 colon) | GI50 (HOP-62 NSCLC) | GI50 (BT-549 breast) | GI50 (SK-OV-3 ovarian) | GI50 (DU-145 prostate) | GI50 (HT29 colon) | GI50 (A549 NSCLC) | GI50 (786-0 renal) | GI50 (HCT-116 colon) | GI50 (HCC-2998 colon) | GI50 (HOP-92 NSCLC) |
| --- | --- | --- | --- | --- | --- | --- | --- | --- | --- | --- | --- | --- | --- | --- | --- | --- | --- | --- | --- | --- |
| CC(C)=CC(=O)CC(=O)C(=O)Nc1ccc(C)c(C)c1 | > 100 µM | > 100 µM | > 100 µM | > 100 µM | > 100 µM | > 100 µM |  |  |  |  |  |  |  |  |  |  |  |  |  |  |
| ClC(=Nc1cccc2ccccc12)N(c1ccccc1)c1ccccc1 | > 100 µM | > 100 µM | > 100 µM | > 100 µM | > 100 µM |  | > 100 µM | > 100 µM | > 100 µM | 54.8 µM |  |  |  |  |  |  |  |  |  |  |
| Cc1cc(C)nc(NS(=O)(=O)c2ccc(Nc3c4ccccc4nc4c(C(=O)Nc5ccc(S(N)(=O)=O)cc5)cccc34)cc2)n1 | 75.5 µM | > 100 µM | > 100 µM | > 100 µM | > 100 µM | > 100 µM | > 100 µM |  |  |  |  |  |  |  |  |  |  |  |  |  |
| COC1C=C(Nc2cccc(Cl)c2)C(=O)C1 (centres undefined) | > 100 µM | > 100 µM | 41.2 µM | > 100 µM | > 100 µM | > 100 µM | > 100 µM |  |  | > 100 µM |  |  |  |  |  |  |  |  |  |  |
| NC(N)=NS(=O)(=O)c1ccc(NC(=O)c2cccc3c(Nc4ccc(S(=O)(=O)N=C(N)N)cc4)c4ccc(Cl)cc4nc23)cc1 | > 100 µM | > 100 µM | > 100 µM | > 100 µM | > 100 µM | 93 µM | > 100 µM |  |  | > 100 µM |  |  |  |  |  |  |  |  |  |  |
| CC(=O)O[C@H]1C(=O)[C@@]2(C)C([C@H](OC(=O)c3ccccc3)[C@]3(O)C[C@H](OC(=O)[C@H](O)[C@H](NC(=O)c4ccccc4)c4ccc(Cl)cc4)C(C)=C1C3(C)C)C1(OC(C)=O)CO[C@@H]1C[C@@H]2O (some centres undefined) |  |  | 24.4 µM | 28.1 µM |  |  | 26.5 µM |  |  | 0.0105 µM | 0.0321 µM |  |  |  |  |  |  |  |  |  |
| COc1ccc(-c2oc3cc(O)c(OC)c(O)c3c(=O)c2OC2OC(CO)C(O)C(O)C2O)cc1 (centres undefined) | > 100 µM | > 100 µM | > 100 µM | > 100 µM | > 100 µM | > 100 µM |  |  |  | > 100 µM |  |  |  |  |  |  |  |  |  |  |
| CCOC(=O)c1cnc(SCc2ccc(Cl)c(Cl)c2)nc1N1CC1 | 10.4 µM | 12.2 µM | 16.1 µM | 14.1 µM | 10.9 µM |  | 13.6 µM | 13.6 µM | 9.73 µM | 4.73 µM | 2.95 µM | 2.88 µM | 2.85 µM | 2.98 µM | 2.7 µM | 3.72 µM | 3.24 µM | 0.9 µM | 2.07 µM |  |
| CNC(=O)OCc1nc(SC(C)C)n(C)c1COC(=O)NC | > 100 µM | > 100 µM | > 100 µM | > 100 µM | > 100 µM | > 100 µM | > 100 µM |  |  | > 100 µM |  |  |  |  |  |  |  |  |  |  |
| CC1=C(C(=O)Nc2ccc([N+](=O)[O-])cc2)C(c2ccco2)C(C(=O)Nc2ccc([N+](=O)[O-])cc2)=C(C)N1 | 62.9 µM | > 100 µM | > 100 µM | > 100 µM |  | 56.8 µM | 71.1 µM |  |  | 47.9 µM |  |  |  |  |  |  |  |  |  |  |
| CC(=O)[CH-]C(=O)c1ccccc1.CC(=O)[CH-]C(=O)c1ccccc1.CCN(CC)CC[O-].CCN(CC)CC[O-].Cl.[Ti+4] | > 100 µM | 59.6 µM | 98.6 µM | > 100 µM | > 100 µM |  | > 100 µM |  |  | 76.6 µM | 37.4 µM |  | 32.6 µM |  | 24 µM | 27.9 µM | 45.5 µM | 27.2 µM | 23.1 µM |  |
| CCCCN(CCCC)C(=O)C(=O)CC(=O)c1ccc(Br)cc1 | > 100 µM | > 100 µM | > 100 µM | > 100 µM | > 100 µM | > 100 µM | > 100 µM |  |  | > 100 µM |  |  |  |  |  |  |  |  |  |  |
| COc1cc2c3c(n(C)c(=O)c2cc1OC)-c1cc2c(cc1/C3=C\CCCCN)OCO2 | 46.7 µM | > 100 µM | 27.4 µM | 19.6 µM |  | > 100 µM |  |  | 31.4 µM |  |  |  | 17.1 µM | 10.5 µM | 7.45 µM | 6.26 µM | 5.23 µM |  |  | 43.5 µM |
| Cc1ccc2c(c1)NC(c1ccc(C(=O)O)cc1)c1cccn1-2 (centres undefined) | 51.8 µM | > 100 µM | > 100 µM | 43.1 µM | > 100 µM |  | 58.6 µM | > 100 µM | 71.4 µM |  |  |  |  |  |  |  |  |  |  |  |
| CCOC(=O)c1cccc(=O)c(C(=O)OCC)c1 | > 100 µM | > 100 µM | > 100 µM | > 100 µM | > 100 µM |  | > 100 µM |  |  | > 100 µM |  |  |  |  |  |  |  |  |  |  |
| O=C(Cc1ccccc1)NN1C(=O)C(Cl)C1c1cccc(O)c1 (centres undefined) | 80.5 µM | 31.1 µM | 59.8 µM | 31.5 µM | 28.9 µM |  | 80.6 µM |  |  | 36.8 µM |  |  |  |  |  |  |  |  |  |  |
| CC(Cc1ccc(Cl)cc1Cl)NO (centres undefined) | > 100 µM | > 100 µM | > 100 µM | > 100 µM | > 100 µM |  | > 100 µM | > 100 µM | > 100 µM |  |  |  |  |  |  |  |  |  |  |  |
| COc1ccc(N(C)c2nc(C)nc3ccccc23)cc1 | > 26.1 µM |  | > 100 µM | 55.7 µM | > 36 µM | 4.94 µM | > 100 µM | 36.9 µM |  | 4.31 µM | < 0.01 µM | < 0.01 µM | < 0.01 µM |  | < 0.01 µM | < 0.01 µM | < 0.01 µM | < 0.01 µM | < 0.01 µM | < 0.01 µM |
| S=c1[nH]nc(COc2ccc(Cl)cc2)o1 | > 100 µM | > 100 µM | > 100 µM | > 100 µM | > 100 µM | > 100 µM | > 100 µM |  |  | > 100 µM |  |  |  |  |  |  |  |  |  |  |
| Cn1nc(-c2ccccc2NC(=O)C(F)(F)F)c(=O)n(C)c1=S | > 100 µM | 53.8 µM | > 100 µM | > 100 µM | > 100 µM | 50.7 µM | > 100 µM |  |  | > 100 µM |  |  |  |  |  |  |  |  |  |  |
| CC1=C(C(=O)Nc2ccccc2)C(c2ccc3c(c2)OCO3)C(C(=O)Nc2ccccc2)=C(C)N1 | > 100 µM | > 100 µM | > 100 µM | > 100 µM |  |  | > 100 µM |  |  | > 100 µM |  |  |  |  |  |  |  |  |  |  |
| N#Cc1ccccc1NC(=O)C(=O)C(C(=O)c1ccccc1-c1ccccc1)C1OC(=O)c2ccccc21 (centres undefined) | > 100 µM | 97.3 µM | > 100 µM | 33.5 µM | 23 µM | 38.8 µM | 25.1 µM |  |  | 29.2 µM |  |  |  |  |  |  |  |  |  |  |
